Experimental findings from patent US10980809B2, “Urea-substituted aromatic ring-linked dioxane-quinazoline and -linked dioxane-quinoline compounds, preparation method therefor and use thereof” (BEIJING SCITECH-MQ PHARMACEUTICALS LIMITED, priority 2017, dated 2021) are described below.

Sequence of VEGFR-2 kinase (P35968 20-1356): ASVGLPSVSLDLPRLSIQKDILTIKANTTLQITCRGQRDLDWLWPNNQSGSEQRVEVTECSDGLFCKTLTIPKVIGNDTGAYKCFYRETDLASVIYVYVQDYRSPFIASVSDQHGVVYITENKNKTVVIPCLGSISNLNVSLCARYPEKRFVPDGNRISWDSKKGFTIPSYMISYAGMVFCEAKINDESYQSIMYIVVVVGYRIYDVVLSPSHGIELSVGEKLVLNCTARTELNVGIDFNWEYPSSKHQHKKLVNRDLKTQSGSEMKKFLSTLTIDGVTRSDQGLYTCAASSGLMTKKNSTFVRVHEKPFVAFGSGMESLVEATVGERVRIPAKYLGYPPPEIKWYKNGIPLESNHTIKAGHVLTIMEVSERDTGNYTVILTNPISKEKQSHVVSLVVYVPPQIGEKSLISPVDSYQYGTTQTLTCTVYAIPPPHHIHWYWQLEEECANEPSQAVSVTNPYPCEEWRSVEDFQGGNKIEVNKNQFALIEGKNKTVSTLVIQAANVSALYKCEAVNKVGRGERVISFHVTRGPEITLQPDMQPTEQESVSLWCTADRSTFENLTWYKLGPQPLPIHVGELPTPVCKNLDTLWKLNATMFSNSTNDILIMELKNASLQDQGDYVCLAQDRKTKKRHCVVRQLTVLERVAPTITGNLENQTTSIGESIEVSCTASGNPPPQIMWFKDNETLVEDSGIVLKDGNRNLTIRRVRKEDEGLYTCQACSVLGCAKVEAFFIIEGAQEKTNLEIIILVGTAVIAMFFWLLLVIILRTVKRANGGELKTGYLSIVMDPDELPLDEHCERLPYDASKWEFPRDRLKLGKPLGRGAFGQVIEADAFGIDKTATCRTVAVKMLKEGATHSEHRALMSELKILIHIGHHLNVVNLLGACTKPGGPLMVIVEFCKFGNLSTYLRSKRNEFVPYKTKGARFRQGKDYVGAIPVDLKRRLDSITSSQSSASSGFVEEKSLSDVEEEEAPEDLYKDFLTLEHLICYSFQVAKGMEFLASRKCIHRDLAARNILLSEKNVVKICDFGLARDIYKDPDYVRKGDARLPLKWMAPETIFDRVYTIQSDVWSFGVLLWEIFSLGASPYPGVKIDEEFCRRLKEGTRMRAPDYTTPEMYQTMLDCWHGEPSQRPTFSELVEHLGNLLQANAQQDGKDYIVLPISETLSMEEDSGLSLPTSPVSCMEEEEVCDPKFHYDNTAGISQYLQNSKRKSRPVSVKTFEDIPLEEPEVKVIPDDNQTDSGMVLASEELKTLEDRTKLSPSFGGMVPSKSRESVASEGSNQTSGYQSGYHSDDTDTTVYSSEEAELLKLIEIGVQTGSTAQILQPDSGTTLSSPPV

The experiment concerns the target VEGFR-2 kinase (Homo sapiens (Human), UniProt P35968). The experiment is described as follows: Test of small molecule compounds for inhibiting the activity of VEGFR-2 kinase. The format is biochemical. The following applies: class symbols A-D. As to the method:
Test of Small Molecule Compounds for Inhibiting the Activity of VEGFR-2 Kinase
The test was carried out as follows:
2. 2.5 μl of the gradient-diluted compounds was taken with a transfer pipette to a 384-well plate,
3. Addition of enzyme: 5 μl of 2×VEGFR-2 kinase was taken with a transfer pipette to the corresponding reaction well of the 384-well plate, which was mixed and pre-reacted at room temperature for 30 min,
5. Negative control: 2.5 μl/well 4× substrate/ATP Mix and 7.5 μl 1× Kinase Assay Buffer were added to the wells of the 384-well plate,
Positive control: 2.5 μl/well 4× substrate/ATP Mix, 2.5 μl/well 1× Kinase Assay Buffer containing 4% DMSO, and 5 μl/well 2×VEGFR-2 solution were added to the 384-well plate. The final concentration of DMSO in the reaction system is […],
6. The mixture was mixed well and then centrifuged and reacted at room temperature in dark for 60 min,
9. The 384-well plate was placed into the Envision plate reader and the signal was detected using the appropriate program,
One may read the IC50 as the concentration that inhibits the measured activity by half. A lower IC50 goes with greater potency in that assay. For `COc1cc2ncnc(Oc3ccc(NC(=O)NC4CCCC4)c(Cl)c3)c2c2c1OCCO2` [Example 32, 1-(2-chloro-4-((5-methoxy-2,3-dihydro-[1,4]dioxino[2,3-f]quinazolin-10-yl)oxy)phenyl)-3-cyclopentylurea], the IC50 was < 50 nM. In the case of `COc1cc2ncnc(Oc3ccc(NC(=O)NC4CCCCC4)c(Cl)c3)c2c2c1OCCO2` [Example 33, 1-(2-chloro-4-((5-methoxy-2,3-dihydro-[1,4]dioxino[2,3-f]quinazolin-10-yl)oxy)phenyl)-3-cyclohexylurea] it was < 50 nM; in that of `COCCOc1cc2ncnc(Nc3ccc(NC(=O)NC4CC4)c(Cl)c3)c2c2c1OCCO2` [Example 34, 1-(2-chloro-4-((5-(2-methoxyethoxy)-2,3-dihydro-[1,4]dioxino[2,3-f]quinazolin-10-yl)amino)phenyl)-3-cyclopropylurea], < 50 nM; in that of `COCCOc1cc2ncnc(Nc3ccc(NC(=O)Nc4cccc(OC)c4)c(Cl)c3)c2c2c1OCCO2` [Example 35, 1-(2-chloro-4-((5-(2-methoxyethoxy)-2,3-dihydro-[1,4]dioxino[2,3-f]quinazolin-10-yl)amino)phenyl)-3-(3-methoxyphenyl)urea], < 50 nM. In the case of `COCCOc1cc2ncnc(Nc3ccc(NC(=O)Nc4ccccn4)c(Cl)c3)c2c2c1OCCO2` [Example 36, 1-(2-chloro-4-((5-(2-methoxyethoxy)-2,3-dihydro-[1,4]dioxino[2,3-f]quinazolin-10-yl)amino)phenyl)-3-(pyridin-2-yl)urea] it was > 5000 nM; in that of `COCCOc1cc2ncnc(Nc3ccc(NC(=O)Nc4ccccc4)c(Cl)c3)c2c2c1OCCO2` [Example 37, 1-(2-chloro-4-((5-(2-methoxyethoxy)-2,3-dihydro-[1,4]dioxino[2,3-f]quinazolin-10-yl)amino)phenyl)-3-phenylurea], < 50 nM; in that of `COCCOc1cc2ncnc(Nc3ccc(NC(=O)Nc4ccc(F)cc4)c(Cl)c3)c2c2c1OCCO2` [Example 38, 1-(2-chloro-4-((5-(2-methoxyethoxy)-2,3-dihydro-[1,4]dioxino[2,3-f]quinazolin-10-yl)amino)phenyl)-3-(4-fluorophenyl)urea], < 50 nM.

With `COCCOc1cc2ncnc(Nc3ccc(NC(=O)Nc4cc(C)no4)c(Cl)c3)c2c2c1OCCO2` [Example 39, 1-(2-chloro-4-((5-(2-methoxyethoxy)-2,3-dihydro-[1,4]dioxino[2,3-f]quinazolin-10-yl)amino)phenyl)-3-(3-methylisoxazol-5-yl)urea], the IC50 is < 50 nM. Under `COCCOc1cc2ncnc(Nc3ccc(NC(=O)NC(C)C)c(Cl)c3)c2c2c1OCCO2` [Example 40, 1-(2-chloro-4-((5-(2-methoxyethoxy)-2,3-dihydro-[1,4]dioxino[2,3-f]quinazolin-10-yl)amino)phenyl)-3-isopropylurea] stands 50 to 500 nM. On to `COCCOc1cc2ncnc(Nc3ccc(NC(=O)Nc4ccnc(OC)c4)c(Cl)c3)c2c2c1OCCO2` [Example 41, 1-(2-chloro-4-((5-(2-methoxyethoxy)-2,3-dihydro-[1,4]dioxino[2,3-f]quinazolin-10-yl)amino)phenyl)-3-(2-methoxypyridin-4-yl)urea], for which the IC50 is < 50 nM. In the case of `COCCOc1cc2ncnc(Nc3ccc(NC(=O)Nc4ccc(C(F)(F)F)cc4F)c(Cl)c3)c2c2c1OCCO2` [Example 43, 1-(2-chloro-4-((5-(2-methoxyethoxy)-2,3-dihydro-[1,4]dioxino[2,3-f]quinazolin-10-yl)amino)phenyl)-3-(2-fluoro-4-(trifluoromethyl)phenyl)urea] it was < 50 nM; in that of `COCCOc1cc2ncnc(Nc3ccc(NC(=O)Nc4ccc(Oc5ccccc5)cc4)c(Cl)c3)c2c2c1OCCO2` [Example 44, 1-(2-chloro-4-((5-(2-methoxyethoxy)-2,3-dihydro-[1,4]dioxino[2,3-f]quinazolin-10-yl)amino)phenyl)-3-(4-(phenoxy)phenyl)urea], > 5000 nM. In the case of `COCCOc1cc2ncnc(Oc3ccc(NC(=O)Nc4cccc(OC)c4)cc3Cl)c2c2c1OCCO2` [Example 51, 1-(3-chloro-4-((5-(2-methoxyethoxy)-2,3-dihydro-[1,4]dioxino[2,3-f]quinazolin-10-yl)oxy)phenyl)-3-(3-methoxyphenyl)urea] it was < 50 nM. Under `COCCOc1cc2ncnc(Oc3ccc(NC(=O)Nc4ccnc(OC)c4)cc3)c2c2c1OCCO2` [Example 52, 1-(4-((5-(2-methoxyethoxy)-2,3-dihydro-[1,4]dioxino[2,3-f]quinazolin-10-yl)oxy)phenyl)-3-(2-methoxypyridin-4-yl)urea] stands < 50 nM; under `COCCOc1cc2ncnc(Oc3ccc(NC(=O)Nc4ccnc(OC)c4)cc3Cl)c2c2c1OCCO2` [Example 53, 1-(3-chloro-4-((5-(2-methoxyethoxy)-2,3-dihydro-[1,4]dioxino[2,3-f]quinazolin-10-yl)oxy)phenyl)-3-(2-methoxypyridin-4-yl)urea], < 50 nM. As for `COCCOc1cc2ncnc(Oc3ccc(NC(=O)NC4CCC4)c(Cl)c3)c2c2c1OCCO2` [Example 54, 1-(2-chloro-4-((5-(2-methoxyethoxy)-2,3-dihydro-[1,4]dioxino[2,3-f]quinazolin-10-yl)oxy)phenyl)-3-cyclobutylurea], the IC50 was < 50 nM.

Take `COCCOc1cc2ncnc(Oc3ccc(NC(=O)NC4CCCC4)c(Cl)c3)c2c2c1OCCO2` [Example 55, 1-(2-chloro-4-((5-(2-methoxyethoxy)-2,3-dihydro-[1,4]dioxino[2,3-f]quinazolin-10-yl)oxy)phenyl)-3-cyclopentylurea]: the IC50 is < 50 nM.

`COCCOc1cc2ncnc(Oc3ccc(NC(=O)NC4CCCCC4)c(Cl)c3)c2c2c1OCCO2` [Example 56, 1-(2-chloro-4-((5-(2-methoxyethoxy)-2,3-dihydro-[1,4]dioxino[2,3-f]quinazolin-10-yl)oxy)phenyl)-3-cyclohexylurea]: the IC50 is < 50 nM. For `COCCOc1cc2ncnc(Oc3ccc(NC(=O)Nc4cc(C(F)(F)F)ccc4F)c(F)c3)c2c2c1OCCO2` [Example 57, 1-(2-fluoro-4-((5-(2-methoxyethoxy)-2,3-dihydro-[1,4]dioxino[2,3-f]quinazolin-10-yl)oxy)phenyl)-3-(2-fluoro-5-(trifluoromethyl)phenyl)urea], the IC50 was < 50 nM.

Regarding `COCCOc1cc2ncnc(Oc3ccc(NC(=O)Nc4cc(C(F)(F)F)ccc4F)cc3F)c2c2c1OCCO2` [Example 58, 1-(3-fluoro-4-((5-(2-methoxyethoxy)-2,3-dihydro-[1,4]dioxino[2,3-f]quinazolin-10-yl)oxy)phenyl)-3-(2-fluoro-5-(trifluoromethyl)phenyl)urea], the IC50 is < 50 nM. For the compound `COCCOc1cc2ncnc(Oc3ccc(NC(=O)Nc4ccc(Cl)c(C(F)(F)F)c4)cc3F)c2c2c1OCCO2` [Example 59, 1-(4-chloro-3-(trifluoromethyl)phenyl)-3-(3-fluoro-4-((5-(2-methoxyethoxy)-2,3-dihydro-[1,4]dioxino[2,3-f]quinazolin-10-yl)oxy)phenyl)urea], the concentration for half-maximal inhibition (IC50) is < 50 nM. In the case of `COCCOc1cc2ncnc(Oc3ccc(NC(=O)Nc4ccc(Cl)c(C(F)(F)F)c4)cn3)c2c2c1OCCO2` [Example 60, 1-(4-chloro-3-(trifluoromethyl)phenyl)-3-(6-((5-(2-methoxyethoxy)-2,3-dihydro-[1,4]dioxino[2,3-f]quinazolin-10-yl)oxy)pyridin-3-yl)urea], the 50% inhibitory concentration (IC50) fell in the range of 50 to 500 nM.

As for `O=C(Nc1ccc(Nc2ncnc3cc(OCCCN4CCCC4)c4c(c23)OCCO4)cc1Cl)NC1CC1` [Example 61, 1-(2-chloro-4-((5-(3-(pyrrolidin-1-yl)propoxy)-2,3-dihydro-[1,4]dioxino[2,3-f]quinazolin-10-yl)amino)phenyl)-3-cyclopropylurea], the IC50 is < 50 nM. With `O=C(Nc1ccc(Nc2ncnc3cc(OCCCN4CCOCC4)c4c(c23)OCCO4)cc1Cl)NC1CC1` [Example 63], the IC50 is < 50 nM.

As to `O=C(Nc1ccc(Cl)c(C(F)(F)F)c1)Nc1ccc(Oc2ncnc3cc(OCCCN4CCOCC4)c4c(c23)OCCO4)cc1F` [Example 69, 1-(4-chloro-3-(trifluoromethyl)phenyl)-3-(2-fluoro-4-((5-(3-morpholinopropoxy)-2,3-dihydro-[1,4]dioxino[2,3-f]quinazolin-10-yl)oxy)phenyl)urea], the IC50 is < 50 nM.

`O=C(Nc1ccc(Oc2ncnc3cc(OCCN4CCOCC4)c4c(c23)OCCO4)cc1)Nc1ccc(Cl)c(C(F)(F)F)c1` [Example 72, 1-(4-chloro-3-(trifluoromethyl)phenyl)-3-(4-((5-(2-morpholinoethoxy)-2,3-dihydro-[1,4]dioxino[2,3-f]quinazolin-10-yl)oxy)phenyl)urea] registered an IC50 of 500 to 5000 nM.

With `O=C(Nc1ccc(Oc2ncnc3cc(OCCCN4CCOCC4)c4c(c23)OCCO4)cc1)Nc1ccc(F)c(Cl)c1` [Example 74, 1-(3-chloro-4-fluorophenyl)-3-(4-((5-(3-morpholinopropoxy)-2,3-dihydro-[1,4]dioxino[2,3-f]quinazolin-10-yl)oxy)phenyl)urea], the IC50 is < 50 nM. In the case of `O=C(Nc1ccc(Oc2ncnc3cc(OCCCN4CCOCC4)c4c(c23)OCCO4)cc1)Nc1ccc(F)c(C(F)(F)F)c1` [Example 75, 1-(4-fluoro-3-(trifluoromethyl)phenyl)-3-(4-((5-(3-morpholinopropoxy)-2,3-dihydro-[1,4]dioxino[2,3-f]quinazolin-10-yl)oxy)phenyl)urea] it was < 50 nM.
